From patent publication US20120171123A1, “USES AND COMPOSITIONS FOR TREATMENT OF RHEUMATOID ARTHRITIS” (priority 2006, published 2012)

Columns and labels:
[1] = test system: patients with severe RA who had failed at least one DMARD; assay: Study 2 / Study 3 OLE (adalimumab 40 mg eow monotherapy): HUI3 health utility; assay type: in vivo, human; conditions: for mean HUI3 change from baseline: week 26 (6 months), monotherapy
Procedure: In addition to the SF-36 instrument, the Health Utilities Index Mark 3 (HUI3) and the Functional Assessment of Chronic Illness Therapy-Fatigue (FACIT-F) questionnaires were administered at baseline, 12 weeks, and the end of the study.
The HUI3 scale is 0-1, with “1” denoting perfect health and “0” denoting death. FACIT-F scores range from 0-52, with higher scores representing less fatigue. The SF-36 includes one multi-item scale that assesses eight different dimensions of health, including physical and psychosocial components. For each dimension a value of 0-100 is given, with higher numbers representing less impairment. Changes in HUI3 of ≧0.03, in FACIT-F of ≧4 and in SF-36 of ≧4.4 (physical subscales) and ≧3.1 (mental subscales) are considered clinically meaningful.
The HUI3 was assessed at baseline, and at several time points during the study. Health Utility Index 3 (scale=0-1) measures preference of a health state, with “1” denoting perfect health and “0” denoting death. HUI3 changes of ≧0.03 are considered clinically important. The HUI3 classification system consists of 8 attributes and 5 or 6 levels on each attribute, ranging from full function to severe impairment.
Inclusion criteria for this study included: all patients had severe active disease; and all patients had failed prior DMARD(s).
The Health Utilities Index Mark 3 (HUI3) was assessed at three time points. HUI 3 consists of 8 attributes: vision, hearing, speech, ambulation, dexterity, emotion, cognition, and pain. HUI3 score changes of ≧0.03 are considered clinically important. […] As can also be seen in this figure, the Study 2 study population started with baseline values reflecting a patient population with a more severe disease activity than in Study I, as documented by TJC, SJC, HAQ, CRP, and number of previous DMARDs.
In addition to clinical parameters, the SF-36 instrument, the Health Utilities Index Mark 3 (HUI3), and the Functional Assessment of Chronic Illness Therapy-Fatigue (FACIT-F) questionnaires were administered at baseline, and at weeks 12, 26, 50, 74, 98, 122, 146 and 170, respectively. The HUI3 scale ranges from 0-1, with “1” denoting perfect health and “0” denoting death. FACIT-F scores range from 0-52, with higher scores representing less fatigue. SF-36 scores range from 0-100 with higher scores indicating improvement in HRQoL. Changes in HUI3 scores of ≧0.03, 1 FACIT-F scores of ≧4, 2 and individual SF-36 domain scores of 5-103 are considered clinically meaningful.

[2] = test system: patients with RA who had failed prior treatment with infliximab; assay: Adalimumab after failed infliximab: TJC28 and SJC28; assay type: in vivo, human; conditions: 16 wk
Description: Patients eligible to participate in the study included those with long-standing, moderate to severe RA who had terminated infliximab therapy because of lack or loss of efficacy and/or intolerance/side effects. […] Follow-up visits for safety and efficacy monitoring were scheduled at 2, 8, and 16 weeks. […] Efficacy parameters included TJC28 and SJC28; DAS28; ACR20, ACR50 Response; Moderate EULAR response; and HAQ. Subgroup analysis by reason for discontinuation included: • in case of discontinuation due to lack or loss of efficacy, patients were counted in the corresponding group regardless of additional cause of intolerance. • The subgroup “Discontinuation due to intolerance” was exclusive.

[3] = test system: patients with long-standing, moderate to severe RA; assay: Study 5 (open-label extension, adalimumab 40 mg eow + MTX, into 7th year): long-term efficacy (ACR, DAS28, TJC, SJC, HAQ) and withdrawals; assay type: in vivo, human; conditions: Year 7
Procedure: After these trials, patients were eligible to enroll in two separate OLE studies: Study 4 and Study 5. Patients were evaluated for efficacy and safety every 3 months.
Efficacy outcomes were evaluated as observed data: DAS28; ACR 20/50/70; Tender Joint Count (TJC); Swollen Joint Count (SJC); and HAQ Disability Index. Baseline demographics and disease characteristics were similar in both Study 4 and Study 5 consistent with moderate to severe RA, as shown below in Table 64: […]

[4] = test system: patients with long-standing RA; assay: Study I open-label extension (adalimumab 40 mg eow + MTX): ACR response; assay type: in vivo, human; conditions: 5 years, observed
Procedure: 217 patients who completed the blinded period and participated in the extension trial for a minimum of 6 months were allowed to adjust MTX and/or corticosteroid dosages at the discretion of the principal investigators. Dose tapering was conducted according to standard medical practice with respect to controlling disease activity
Demographic data, age, gender, disease duration, rheumatoid factor and changes in TJC, SJC, CRP, DAS28, HAQ and ACR responses were analysed. Baseline demographics and disease characteristics as well as efficacy measures at last visit (ACR 20/50/70, DAS28, HAQ) were compared between the groups. All patients, including those who discontinued from the trial, were evaluated
Patients were eligible to enroll in Study I if they met ACR criteria for diagnosis of RA. […] Efficacy outcomes were assessed at pre-specified intervals as observed data. Treatment time was calculated beginning with the first subcutaneous injection of adalimumab at any dose, excluding time on placebo. Improvements in signs and symptoms of RA were evaluated for ACR20, ACR50, and ACR70 criteria, 28-joint count Disease Activity Score (DAS28) using the CRP-based formula, and Health Assessment Questionnaire (HAQ). Patients with changes in dosage of MTX or corticosteroids were evaluated for at least 6 months; these patients were eligible for the extension study for at least 6 months and were eligible for discretionary dose tapering. Patients were monitored for adverse events (AEs) during the entire length of the study, from signed informed consent through last visit.

[5] = test system: patients with active rheumatoid arthritis; conditions: Study A (N=2008), 12 weeks; cited from earlier work
[6] = test system: patients with long-standing RA; assay: Study 4: change in dosing of concomitant corticosteroids and methotrexate; assay type: in vivo, human
Description: The mean corticosteroid dose (mg/day) at baseline was 5.56, where the mean corticosteroid dose (mg/day) at the final dose was 3.57 (p<0.0001 (determined by Wilcoxon's signed rank test)).
There was also a change in the dosing of concomitant methotrexate for RA patients in the study being treated with adalimumab. […] For only 8% of patients was the dose of mtx increased.

[7] = all reasons for infliximab withdrawal (N=37)
[8] = loss of response to infliximab (N=19)
[9] = no response to infliximab (N=13)

**Q.** With “adalimumab: human anti-TNF mAb (HUMIRA, Abbott Laboratories), described in U.S. Pat. No. 6,090,382 as D2E7” as the substance, how does the “patients reaching HUI3 MCID of 0.03 change from baseline” value ([1]; week 12 through week 170) read?
**A.** about 60%

**Q.** And the “mean HUI3 change from baseline” value [1]?
**A.** 0.18 a, b

**Q.** What about the “mean HUI3 change from baseline” value ([1]; listed as ada) of the same substance?
**A.** 0.18

**Q.** What about the “mean HUI3 improvement from baseline” value ([1]; week 50 (1 year)) of the same substance?
**A.** +0.17

**Q.** And the “mean HUI3 improvement from baseline” value ([1]; week 50 (1 year), listed as ada)?
**A.** 0.17

**Q.** What about the “mean HUI3 improvement from baseline” value ([1]; week 170 (3 years)) of the same substance?
**A.** +0.19

**Q.** What about the “mean HUI3 improvement from baseline” value ([1]; week 170 (3 years), listed as ada) of the same substance?
**A.** 0.19

**Q.** And the “Change in SJC (0-28), mean change from baseline” value (“Change in SJC” below) [2, 7]?
**A.** −5.2

**Q.** What about the “Change in TJC (0-28), mean change from baseline” value (from here on “Change in TJC”) [2, 7] of the same substance?
**A.** −7.4

**Q.** What about the “Change in SJC” value ([2]; infliximab intolerance (N=5)) of the same substance?
**A.** −7.8

**Q.** And the “Change in TJC” value ([2]; infliximab intolerance (N=5))?
**A.** −10.0

**Q.** What about the “Change in SJC” value [2, 8] of the same substance?
**A.** −6.1

**Q.** And the “Change in TJC” value [2, 8]?
**A.** −8.2

**Q.** What about the “Change in SJC” value [2, 9] of the same substance?
**A.** −2.8

**Q.** What about the “Change in TJC” value [2, 9] of the same substance?
**A.** −5.1

**Q.** What about the “patients achieving clinical remission (DAS28<2.6)” value [3] of the same substance?
**A.** Over 40%

**Q.** What about the ACR20 [4] of the same substance?
**A.** 76%

**Q.** And the ACR50 [4]?
**A.** 64%

**Q.** What about the ACR70 [4] of the same substance?
**A.** 39%

**Q.** And the “SJC (0-28), change from baseline, median” value [5]?
**A.** −7

**Q.** And the “TJC (0-28), change from baseline, median” value [5]?
**A.** −10

**Q.** And the “mean concomitant corticosteroid dose” value ([6]; at final dose (baseline 5.56))?
**A.** 3.57 mg/day

**Q.** And the “mean concomitant mtx dose” value ([6]; at final dose of adalimumab (baseline 15.79))?
**A.** 13.81 mg/week

**Q.** And the “patients with dose reduction of steroids” value ([6]; n=294)?
**A.** 29%

**Q.** What about the “patients with increased steroid dose” value ([6]; n=294) of the same substance?
**A.** 6%

**Q.** What about the “patients with unchanged steroid dose” value ([6]; n=294) of the same substance?
**A.** 40%

**Q.** And the “patients with increased mtx dose” value ([6]; n=546)?
**A.** 8%

**Q.** And the “patients with mtx dose reduction” value ([6]; n=546)?
**A.** 32%

**Q.** What about the “patients with unchanged mtx dose” value ([6]; n=546) of the same substance?
**A.** 60%

**Q.** What about the “patients able to discontinue steroids” value ([6]; patients on concomitant corticosteroids, n=294) of the same substance?
**A.** 24%
